Results taken from US10463644B2, “Uses of sesquiterpene lactone compounds and their derivatives in drugs preparation” (ACCENDATECH, priority 2013, dated 2019).

Tests used:
[1] = tested on: IL-1β secreted by synoviocyte; assay: Content of IL-1β in culture supernatant of synoviocyte of RA model rats given test compound; type: in vivo; conditions: rat RA model, dose 30 mg/kg.2d; normal control 0.16 ± 0.034, NaCl 0.49 ± 0.136
Source text: (§1) Take Compound 1-50 prepared as per the method according to the present invention and employ the method provided in Reference to prepare model, group drugs and prepare culture supernatant of rat synoviocyte.
(§2) Employ the method provided in Reference to investigate the effects of the test compounds on the synoviocyte to secrete TNF-α and PGE2. Employ the method provided in Reference to investigate the effects of the test compounds on the synoviocyte to secrete IL-1β.
(§3) The experimental data of the test compound 1-50 at a dose of 30 mg/kg.2d as well as the normal control and NaCl group are as follows: […]

cancer stem cells = assay: Survival rate of cancer stem cells after test compound is added (flow cytometry, Annexin V-FITC/PI, clinical specimen); type: cell-based, patient
Source text: (§4) Take fresh or cryopreserved clinical specimen (acute myelogenous leukemia (AML, marker is CD34^+/CD38^+), chronic myelogenous leukemia (CML, Ph+/CD34+/CXCR4+), chronic lymphocytic leukemia (CLL,CD133+/CD19−/CD38−), skin cancer (CD34+), breast cancer (CD44+/CD24−/ESA+), ovarian cancer (CD44+/CD117+), brain tumor (CD133+) prostate cancer (CD44+/CD24−), head-neck squamous cell carcinoma (CD44+), laryngeal cancer (CD133+), pancreatic cancer (ESA+/CD44+/CD24+), retinoblastoma (ABCG2/ALDH1), Children hepatoblastoma (CD34+/THY1+/c-kit+), liver cancer (CD133+), malignant melanoma (CD133+), colorectal cancer (EpCAM^high/CD44+), colon adenocarcinoma (CD44^high), glioma (ABCG-2/BCRP1), gastrointestinal tumor (ABCG-2/BCRP1), nasopharynx cancer (ABCG2), brain glioma (Dlk-1/Pref-1), gastric cancer (CD45+), lung adenocarcinoma (Sca-1/CD45-/Pecam-/CD34+), lung cancer (CD133+CD34+CD44+)) of patient. Take the acute myelogenous leukemia as the example, conduct density gradient centrifugation with Ficoll and take out the middle mononuclear cells, re-suspend it with serum-free IMDM after centrifuged. Adjust the concentration of cells into 1×10^6/mL and lay 24-well plate with 1 mL in each well, and then treat 18 hours with the compound to select with corresponding concentration. Collect the cells and centrifuge them at 1500 rps for 8 minutes, re-suspend the precipitation with […], mark the antibodies related to leukemia stem cell, avoid light to incubate 30 minutes at room temperature and then centrifuge it at 1500 rps, then wash away the unbound antibody CD34^+CD38^+. Re-suspend it with 100 μl 1× Binding Buffer and add respectively 5 μl Annexin V-FITC and PI, then avoid light to incubate 15 minutes before add 200 μl 1× Binding Buffer, then use flow cytometry to examine the marked apoptosis within one hour.

[2] = tested on: TNF-α secreted by synoviocyte; assay: Content of TNF-α in culture supernatant of synoviocyte of RA model rats given test compound; type: in vivo; conditions: rat RA model, dose 30 mg/kg.2d; normal control 0.38 ± 0.027, NaCl 0.74 ± 0.098
Source text: as §1, §2, §3

normal cells = assay: Survival rate of normal cells after test compound is added (flow cytometry, Annexin V-FITC/PI); type: cell-based; conditions: 10.0 μM
Source text: as §4

## CN(C)C[C@@H]1C(=O)O[C@H]2[C@H]1CCC1(CC1)[C@@H]1CCC3(CC3)[C@H]21.Cl [Compound 28]
[1]
  Content of IL-1β in culture supernatant of synoviocyte (x ± s): 0.31 ± 0.067 ng/mL
Cancer stem cells; AML, 10.0 μM
  Survival rate (%) Stem cells: 87%
Cancer stem cells; AML, 20.0 μM
  Survival rate (%) Stem cells: 76%
Cancer stem cells; Brain glioma, 10.0 μM
  Survival rate (%) Stem cells: 82%
Cancer stem cells; Brain glioma, 20.0 μM
  Survival rate (%) Stem cells: 76%
Cancer stem cells; Brain tumor, 10.0 μM
  Survival rate (%) Stem cells: 82%
Cancer stem cells; Brain tumor, 20.0 μM
  Survival rate (%) Stem cells: 73%
Cancer stem cells; Breast cancer, 10.0 μM
  Survival rate (%) Stem cells: 81%
Cancer stem cells; Breast cancer, 20.0 μM
  Survival rate (%) Stem cells: 75%
Cancer stem cells; CLL, 10.0 μM
  Survival rate (%) Stem cells: 82%
Cancer stem cells; CLL, 20.0 μM
  Survival rate (%) Stem cells: 73%
Cancer stem cells; CML, 10.0 μM
  Survival rate (%) Stem cells: 85%
Cancer stem cells; CML, 20.0 μM
  Survival rate (%) Stem cells: 77%
Cancer stem cells; Children hepatoblastoma, 10.0 μM
  Survival rate (%) Stem cells: 85%
Cancer stem cells; Children hepatoblastoma, 20.0 μM
  Survival rate (%) Stem cells: 77%
Cancer stem cells; Colon adenocarcinoma, 10.0 μM
  Survival rate (%) Stem cells: 82%
Cancer stem cells; Colon adenocarcinoma, 20.0 μM
  Survival rate (%) Stem cells: 74%
Cancer stem cells; Colorectal cancer, 10.0 μM
  Survival rate (%) Stem cells: 81%
Cancer stem cells; Colorectal cancer, 20.0 μM
  Survival rate (%) Stem cells: 75%
Cancer stem cells; Gastric cancer, 10.0 μM
  Survival rate (%) Stem cells: 79%
Cancer stem cells; Gastric cancer, 20.0 μM
  Survival rate (%) Stem cells: 72%
Cancer stem cells; Gastrointestinal tumor, 10.0 μM
  Survival rate (%) Stem cells: 82%
Cancer stem cells; Gastrointestinal tumor, 20.0 μM
  Survival rate (%) Stem cells: 76%
Cancer stem cells; Glioma, 10.0 μM
  Survival rate (%) Stem cells: 85%
Cancer stem cells; Glioma, 20.0 μM
  Survival rate (%) Stem cells: 79%
Cancer stem cells; Head and neck squamous cell carcinomas, 10.0 μM
  Survival rate (%) Stem cells: 81%
Cancer stem cells; Head and neck squamous cell carcinomas, 20.0 μM
  Survival rate (%) Stem cells: 75%
Cancer stem cells; Laryngeal cancer, 10.0 μM
  Survival rate (%) Stem cells: 85%
Cancer stem cells; Laryngeal cancer, 20.0 μM
  Survival rate (%) Stem cells: 77%
Cancer stem cells; Liver cancer, 10.0 μM
  Survival rate (%) Stem cells: 82%
Cancer stem cells; Liver cancer, 20.0 μM
  Survival rate (%) Stem cells: 73%
Cancer stem cells; Lung adenocarcinoma, 10.0 μM
  Survival rate (%) Stem cells: 88%
Cancer stem cells; Lung adenocarcinoma, 20.0 μM
  Survival rate (%) Stem cells: 81%
Cancer stem cells; Lung cancer, 10.0 μM
  Survival rate (%) Stem cells: 87%
Cancer stem cells; Lung cancer, 20.0 μM
  Survival rate (%) Stem cells: 76%
Cancer stem cells; Malignant melanoma, 10.0 μM
  Survival rate (%) Stem cells: 84%
Cancer stem cells; Malignant melanoma, 20.0 μM
  Survival rate (%) Stem cells: 78%
Cancer stem cells; Nasopharynx cancer, 10.0 μM
  Survival rate (%) Stem cells: 85%
Cancer stem cells; Nasopharynx cancer, 20.0 μM
  Survival rate (%) Stem cells: 77%
Cancer stem cells; Ovarian cancer, 10.0 μM
  Survival rate (%) Stem cells: 85%
Cancer stem cells; Ovarian cancer, 20.0 μM
  Survival rate (%) Stem cells: 79%
Cancer stem cells; Pancreatic cancer, 10.0 μM
  Survival rate (%) Stem cells: 86%
Cancer stem cells; Pancreatic cancer, 20.0 μM
  Survival rate (%) Stem cells: 78%
Cancer stem cells; Prostate cancer, 10.0 μM
  Survival rate (%) Stem cells: 84%
Cancer stem cells; Prostate cancer, 20.0 μM
  Survival rate (%) Stem cells: 78%
Cancer stem cells; Retinoblastoma, 10.0 μM
  Survival rate (%) Stem cells: 84%
Cancer stem cells; Retinoblastoma, 20.0 μM
  Survival rate (%) Stem cells: 80%
Cancer stem cells; Skin cancer, 10.0 μM
  Survival rate (%) Stem cells: 84%
Cancer stem cells; Skin cancer, 20.0 μM
  Survival rate (%) Stem cells: 78%
[2]
  Content of TNF-α in culture supernatant of synoviocyte (x ± s): 0.47 ± 0.056 ng/mL
Normal cells
  Survival rate (%) All cells (Stem cells and ordinary cells): 96%
